# From patent US10597388B2, “Pyridazinone herbicides” (FMC CORPORATION, priority 2014, dated 2020)
# Experiments:
# Assay type in all cases: in vivo
# [1] = tested on: waterhemp_RES2 (ALS & HPPD resistant common waterhemp, Amaranthus rudis); experiment: Test E greenhouse herbicide test, postemergence
# In short: (§1)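 Postemergence spray on potted plants, 1–4 leaves, 2–18 cm; greenhouse 14–21 d; visual rating vs controls, 0 (no effect) to 100 (complete control).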
# [2] = tested on: waterhemp_RES1 (ALS & Triazine resistant common waterhemp, Amaranthus rudis); experiment: Test E greenhouse herbicide test, postemergence
# In short: as §1
# [3] = tested on: waterhemp (common waterhemp, Amaranthus rudis); experiment: Test E greenhouse herbicide test, pre- and postemergence
# In short: (§2)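 Seeds were sown in silt loam and sprayed preemergence with compound in a non-phytotoxic solvent mix containing surfactant; for postemergence, plants at 2 to 18 cm (1- to 4-leaf stage) in peat-based potting medium were sprayed with the same formulation. After 14 to 21 d in a greenhouse, injury was rated visually against controls (0–100).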
# [4] = tested on: surinam grass (Brachiaria decumbens); experiment: as above; details: Preemergence
# In short: as §2
# kochia (Kochia scoparia) = experiment: as above
# In short: as §2
# [5] = tested on: nightshade (eastern black nightshade, Solanum ptycanthum); experiment: as above; details: Preemergence
# In short: as §2
# [6] = tested on: crabgrass, Brazilian (Brazilian crabgrass, Digitaria horizontalis); experiment: as above
# In short: as §2
# [7] = tested on: goosegrass (Eleusine indica); experiment: as above; details: Preemergence
# In short: as §2
# [8] = tested on: crabgrass, large (large crabgrass, Digitaria sanguinalis); experiment: as above; details: Preemergence
# In short: as §2
# [9] = tested on: panicum, fall (fall panicum, Panicum dichotomiflorum); experiment: as above
# In short: as §2
# [10] = tested on: horseweed (Conyza canadensis); experiment: as above
# In short: as §2
# [11] = tested on: sandbur (southem sandbur, Cenchrus echinatus); experiment: as above
# In short: as §2
# [12] = tested on: foxtail, giant (giant foxtail, Setaria faberii); experiment: as above; details: Preemergence
# In short: as §2
# [13] = tested on: ragweed (common ragweed, Ambrosia elatior); experiment: as above
# In short: as §2
# [14] = tested on: field bindweed (Convolvulus arvensis); experiment: as above
# In short: as §2
# [15] = tested on: beggarticks (hairy beggarticks, Bidens pilosa); experiment: as above
# In short: as §2
# [16] = 31 g ai/ha, visual, scale 0 no effect to 100 complete control
# [17] = 62 g ai/ha, scale 0 to 100 (0 no effect, 100 complete control)
# [18] = 125 g ai/ha, scale 0 to 100 (0 no effect, 100 complete control)
# [19] = 250 g ai/ha, scale 0 to 100 (0 no effect, 100 complete control)
# [20] = 62 g ai/ha, Postemergence, scale 0 to 100 (0 no effect, 100 complete control)
# [21] = 62 g ai/ha, Preemergence, scale 0 to 100 (0 no effect, 100 complete control)
# [22] = 125 g ai/ha, Postemergence, scale 0 to 100 (0 no effect, 100 complete control)
# [23] = 125 g ai/ha, Preemergence, scale 0 to 100 (0 no effect, 100 complete control)
# [24] = 250 g ai/ha, Postemergence, scale 0 to 100 (0 no effect, 100 complete control)
# [25] = Postemergence, 31 g ai/ha, visual, scale 0 no effect to 100 complete control
# [26] = Preemergence, 31 g ai/ha, scale 0 to 100, 0 no effect, 100 complete control
# [27] = Preemergence, 250 g ai/ha, visual, scale 0 no effect to 100 complete control
# [28] = 31 g ai/ha, scale 0 to 100, 0 no effect, 100 complete control
# [29] = 250 g ai/ha, visual, scale 0 no effect to 100 complete control
# [30] = Preemergence, 125 g ai/ha, visual, scale 0 no effect to 100 complete control
# [31] = 125 g ai/ha, visual, scale 0 no effect to 100 complete control
smiles,measurement,setting,value
Cc1nn(C)c(=O)c(-c2ccc(F)c3ccccc23)c1O [Compound 41],"Plant response rating, Waterhemp_RES2",[1]; [16],20
same,"Plant response rating, Waterhemp_RES2",[1]; [17],80
same,"Plant response rating, Waterhemp_RES2",[1]; [18],80
same,"Plant response rating, Waterhemp_RES2",[1]; [19],85
same,"Plant response rating, Waterhemp_RES1",[2]; [16],75
same,"Plant response rating, Waterhemp_RES1",[2]; [17],75
same,"Plant response rating, Waterhemp_RES1",[2]; [18],90
same,"Plant response rating, Waterhemp_RES1",[2]; [19],95
same,"Plant response rating, Waterhemp",[3]; [20],85
same,"Plant response rating, Waterhemp",[3]; [21],98
same,"Plant response rating, Waterhemp",[3]; [22],90
same,"Plant response rating, Waterhemp",[3]; [23],100
same,"Plant response rating, Waterhemp",[3]; [24],85
same,"Plant response rating, Waterhemp",[3]; [25],75
same,"Plant response rating, Waterhemp",[3]; [26],75
same,"Plant response rating, Waterhemp",[3]; [27],100
same,"Plant response rating, Surinam Grass",[4]; [17],75
same,"Plant response rating, Surinam Grass",[4]; [18],75
same,"Plant response rating, Surinam Grass",[4]; [28],10
same,"Plant response rating, Surinam Grass",[4]; [29],95
same,"Plant response rating, Kochia",kochia (Kochia scoparia); [20],95
same,"Plant response rating, Kochia",kochia (Kochia scoparia); [21],90
same,"Plant response rating, Kochia",kochia (Kochia scoparia); [22],95
same,"Plant response rating, Kochia",kochia (Kochia scoparia); [24],95
same,"Plant response rating, Kochia",kochia (Kochia scoparia); [25],90
same,"Plant response rating, Kochia",kochia (Kochia scoparia); [26],90
same,"Plant response rating, Kochia",kochia (Kochia scoparia); [30],100
same,"Plant response rating, Kochia",kochia (Kochia scoparia); [27],100
same,"Plant response rating, Nightshade",[5]; [17],80
same,"Plant response rating, Nightshade",[5]; [18],98
same,"Plant response rating, Nightshade",[5]; [28],25
same,"Plant response rating, Nightshade",[5]; [29],98
same,"Plant response rating, Crabgrass, Brazil",[6]; [20],20
same,"Plant response rating, Crabgrass, Brazil",[6]; [21],65
same,"Plant response rating, Crabgrass, Brazil",[6]; [22],30
same,"Plant response rating, Crabgrass, Brazil",[6]; [24],50
same,"Plant response rating, Crabgrass, Brazil",[6]; [25],10
same,"Plant response rating, Crabgrass, Brazil",[6]; [26],80
same,"Plant response rating, Crabgrass, Brazil",[6]; [30],100
same,"Plant response rating, Crabgrass, Brazil",[6]; [27],80
same,"Plant response rating, Goosegrass",[7]; [17],0
same,"Plant response rating, Goosegrass",[7]; [28],0
same,"Plant response rating, Goosegrass",[7]; [31],50
same,"Plant response rating, Goosegrass",[7]; [29],60
same,"Plant response rating, Crabgrass, Large",[8]; [17],70
same,"Plant response rating, Crabgrass, Large",[8]; [28],65
same,"Plant response rating, Crabgrass, Large",[8]; [31],80
same,"Plant response rating, Crabgrass, Large",[8]; [29],60
same,"Plant response rating, Panicum, Fall",[9]; [20],25
same,"Plant response rating, Panicum, Fall",[9]; [21],90
same,"Plant response rating, Panicum, Fall",[9]; [22],30
same,"Plant response rating, Panicum, Fall",[9]; [23],95
same,"Plant response rating, Panicum, Fall",[9]; [24],50
same,"Plant response rating, Panicum, Fall",[9]; [25],15
same,"Plant response rating, Panicum, Fall",[9]; [26],80
same,"Plant response rating, Panicum, Fall",[9]; [27],98
same,"Plant response rating, Horseweed",[10]; [20],80
same,"Plant response rating, Horseweed",[10]; [21],100
same,"Plant response rating, Horseweed",[10]; [22],80
same,"Plant response rating, Horseweed",[10]; [24],70
same,"Plant response rating, Horseweed",[10]; [25],75
same,"Plant response rating, Horseweed",[10]; [26],100
same,"Plant response rating, Horseweed",[10]; [30],100
same,"Plant response rating, Horseweed",[10]; [27],100
same,"Plant response rating, Sandbur",[11]; [20],50
same,"Plant response rating, Sandbur",[11]; [21],70
same,"Plant response rating, Sandbur",[11]; [22],70
same,"Plant response rating, Sandbur",[11]; [23],75
same,"Plant response rating, Sandbur",[11]; [24],75
same,"Plant response rating, Sandbur",[11]; [25],60
same,"Plant response rating, Sandbur",[11]; [26],50
same,"Plant response rating, Sandbur",[11]; [27],80
same,"Plant response rating, Foxtail, Giant",[12]; [17],65
same,"Plant response rating, Foxtail, Giant",[12]; [28],30
same,"Plant response rating, Foxtail, Giant",[12]; [31],70
same,"Plant response rating, Foxtail, Giant",[12]; [29],90
same,"Plant response rating, Ragweed",[13]; [21],70
same,"Plant response rating, Ragweed",[13]; [22],90
same,"Plant response rating, Ragweed",[13]; [23],90
same,"Plant response rating, Ragweed",[13]; [24],95
same,"Plant response rating, Ragweed",[13]; [25],80
same,"Plant response rating, Ragweed",[13]; [26],5
same,"Plant response rating, Ragweed",[13]; [27],100
same,"Plant response rating, Field Bindweed",[14]; [20],90
same,"Plant response rating, Field Bindweed",[14]; [21],70
same,"Plant response rating, Field Bindweed",[14]; [22],85
same,"Plant response rating, Field Bindweed",[14]; [24],95
same,"Plant response rating, Field Bindweed",[14]; [25],80
same,"Plant response rating, Field Bindweed",[14]; [26],30
same,"Plant response rating, Field Bindweed",[14]; [30],75
same,"Plant response rating, Field Bindweed",[14]; [27],90
same,"Plant response rating, Beggarticks",[15]; [20],95
same,"Plant response rating, Beggarticks",[15]; [21],98
same,"Plant response rating, Beggarticks",[15]; [22],95
same,"Plant response rating, Beggarticks",[15]; [24],100
same,"Plant response rating, Beggarticks",[15]; [25],100
same,"Plant response rating, Beggarticks",[15]; [26],65
same,"Plant response rating, Beggarticks",[15]; [30],100
same,"Plant response rating, Beggarticks",[15]; [27],100
